# Results as given in patent US6403082B1, “Bacteriocins, transport and vector system and method of use thereof” (priority 1996, dated 2002).
# Values joined by “and” are separate entries in the source; they are usually repeats but may differ in a detail not shown here. Equal values may be shown once. Marks after values point to notes of the source that are not given here.
# Assays:
# Experiment in all cases: Spot test of partially purified bacteriocins on strains grown on agar
# [1] = tested on: Clostridia vegetative cells; type: cell-based, Clostridium
# [2] = tested on: Bacillus spores; type: cell-based
# [3] = tested on: Leuconostoc
# [4] = tested on: Clostridia spores; type: cell-based, Clostridium
# [5] = tested on: Listeria
# [6] = tested on: Enterococcus
# [7] = tested on: G negative strains; type: cell-based
# [8] = tested on: Carnobacteria
# [9] = tested on: Bacillus vegetative cells; type: cell-based
# [10] = tested on: Lactobacillus
# [11] = tested on: Staphylococcus
# [12] = tested on: Streptococcus
# [13] = tested on: Lactococcus
# [14] = tested on: Brochothrix
# [15] = tested on: Pediococcus
# [16] = 8AU (10 μl/spot of 800 AU/ml), listed as Mesent Y105
# [17] = 1AU (10 μl/spot of 100 AU/ml), listed as Mesent Y105
substance,measurement,setting,value
Enterocin 900: broad spectrum bacteriocin of 71 amino acids (SEQ ID NO:30) produced by Enterococcus faecium 900 (MKKELLNKNEMSRIIGGKINWGNVGGSCVGGAVIGGALGGLGGAGGGCITGAIGSIWDQ; Brochocin-C peptide B;),Number of strains inhibited/Number of strains tested,[1]; 1AU (10 μl/spot of 100 AU/ml),2/8
same,Number of strains inhibited/Number of strains tested,[1]; 8AU (10 μl/spot of 800 AU/ml),3/8
same,Number of strains inhibited/Number of strains tested,[2]; 1AU (10 μl/spot of 100 AU/ml),0/5
same,Number of strains inhibited/Number of strains tested,[2]; 8AU (10 μl/spot of 800 AU/ml),0/5
same,Number of strains inhibited/Number of strains tested,[3]; 1AU (10 μl/spot of 100 AU/ml),1/9
same,Number of strains inhibited/Number of strains tested,[3]; 8AU (10 μl/spot of 800 AU/ml),1/9
same,Number of strains inhibited/Number of strains tested,[4]; 1AU (10 μl/spot of 100 AU/ml),0/7
same,Number of strains inhibited/Number of strains tested,[4]; 8AU (10 μl/spot of 800 AU/ml),0/7
same,Number of strains inhibited/Number of strains tested,[5]; 1AU (10 μl/spot of 100 AU/ml),39/42
same,Number of strains inhibited/Number of strains tested,[5]; 8AU (10 μl/spot of 800 AU/ml),39/42
same,Number of strains inhibited/Number of strains tested,[6]; 1AU (10 μl/spot of 100 AU/ml),5/14
same,Number of strains inhibited/Number of strains tested,[6]; 8AU (10 μl/spot of 800 AU/ml),8/14
same,Number of strains inhibited/Number of strains tested,[7]; 1AU (10 μl/spot of 100 AU/ml),0/29
same,Number of strains inhibited/Number of strains tested,[7]; 8AU (10 μl/spot of 800 AU/ml),0/29
same,Number of strains inhibited/Number of strains tested,[8]; 1AU (10 μl/spot of 100 AU/ml),1/19
same,Number of strains inhibited/Number of strains tested,[8]; 8AU (10 μl/spot of 800 AU/ml),7/19
same,Number of strains inhibited/Number of strains tested,[9]; 1AU (10 μl/spot of 100 AU/ml),0/5
same,Number of strains inhibited/Number of strains tested,[9]; 8AU (10 μl/spot of 800 AU/ml),2/5
same,Number of strains inhibited/Number of strains tested,[10]; 1AU (10 μl/spot of 100 AU/ml),2/17
same,Number of strains inhibited/Number of strains tested,[10]; 8AU (10 μl/spot of 800 AU/ml),5/17
same,Number of strains inhibited/Number of strains tested,[11]; 1AU (10 μl/spot of 100 AU/ml),1/7
same,Number of strains inhibited/Number of strains tested,[11]; 8AU (10 μl/spot of 800 AU/ml),1/7
same,Number of strains inhibited/Number of strains tested,[12]; 1AU (10 μl/spot of 100 AU/ml),0/3
same,Number of strains inhibited/Number of strains tested,[12]; 8AU (10 μl/spot of 800 AU/ml),0/3
same,Number of strains inhibited/Number of strains tested,[13]; 1AU (10 μl/spot of 100 AU/ml),4/8
same,Number of strains inhibited/Number of strains tested,[13]; 8AU (10 μl/spot of 800 AU/ml),4/8
same,Number of strains inhibited/Number of strains tested,[14]; 1AU (10 μl/spot of 100 AU/ml),0/14
same,Number of strains inhibited/Number of strains tested,[14]; 8AU (10 μl/spot of 800 AU/ml),0/14
same,Number of strains inhibited/Number of strains tested,[15]; 1AU (10 μl/spot of 100 AU/ml),0/3
same,Number of strains inhibited/Number of strains tested,[15]; 8AU (10 μl/spot of 800 AU/ml),0/3
"Mesen Y105: mesentericin Y105, an anti-Listeria bacteriocin from Leuconostoc mesenteroides (KYYGNGVHCTKSGCSVNWGEAASAGIHRLANGGNGFW; UniProt P38577 25-61, looked up)",Number of strains inhibited/Number of strains tested,[1]; 1AU (10 μl/spot of 100 AU/ml),0/8
same,Number of strains inhibited/Number of strains tested,[1]; 8AU (10 μl/spot of 800 AU/ml),1/8^d
same,Number of strains inhibited/Number of strains tested,[1]; [16],1/8
same,Number of strains inhibited/Number of strains tested,[2]; 1AU (10 μl/spot of 100 AU/ml),5/5^b
same,Number of strains inhibited/Number of strains tested,[2]; [17],5/5
same,Number of strains inhibited/Number of strains tested,[2]; 8AU (10 μl/spot of 800 AU/ml),5/5^b
same,Number of strains inhibited/Number of strains tested,[2]; [16],5/5
same,Number of strains inhibited/Number of strains tested,[3]; 1AU (10 μl/spot of 100 AU/ml),5/9
same,Number of strains inhibited/Number of strains tested,[3]; 8AU (10 μl/spot of 800 AU/ml),6/9^o
same,Number of strains inhibited/Number of strains tested,[3]; [16],6/9
same,Number of strains inhibited/Number of strains tested,[4]; 1AU (10 μl/spot of 100 AU/ml),0/7
same,Number of strains inhibited/Number of strains tested,[4]; 8AU (10 μl/spot of 800 AU/ml),0/7
same,Number of strains inhibited/Number of strains tested,[5]; 1AU (10 μl/spot of 100 AU/ml),36/42^h
same,Number of strains inhibited/Number of strains tested,[5]; [17],36/42
same,Number of strains inhibited/Number of strains tested,[5]; 8AU (10 μl/spot of 800 AU/ml),42/42
same,Number of strains inhibited/Number of strains tested,[6]; 1AU (10 μl/spot of 100 AU/ml),3/14^l
same,Number of strains inhibited/Number of strains tested,[6]; [17],3/14
same,Number of strains inhibited/Number of strains tested,[6]; 8AU (10 μl/spot of 800 AU/ml),9/14^l
same,Number of strains inhibited/Number of strains tested,[6]; [16],9/14
same,Number of strains inhibited/Number of strains tested,[7]; 1AU (10 μl/spot of 100 AU/ml),0/29
same,Number of strains inhibited/Number of strains tested,[7]; 8AU (10 μl/spot of 800 AU/ml),0/29
same,Number of strains inhibited/Number of strains tested,[8]; 1AU (10 μl/spot of 100 AU/ml),17/19^j
same,Number of strains inhibited/Number of strains tested,[8]; [17],17/19
same,Number of strains inhibited/Number of strains tested,[8]; 8AU (10 μl/spot of 800 AU/ml),19/19
same,Number of strains inhibited/Number of strains tested,[9]; 1AU (10 μl/spot of 100 AU/ml),3/5
same,Number of strains inhibited/Number of strains tested,[9]; 8AU (10 μl/spot of 800 AU/ml),5/5
same,Number of strains inhibited/Number of strains tested,[10]; 1AU (10 μl/spot of 100 AU/ml),1/17^m
same,Number of strains inhibited/Number of strains tested,[10]; [17],1/17
same,Number of strains inhibited/Number of strains tested,[10]; 8AU (10 μl/spot of 800 AU/ml),1/17^m
same,Number of strains inhibited/Number of strains tested,[10]; [16],2/17
same,Number of strains inhibited/Number of strains tested,[11]; 1AU (10 μl/spot of 100 AU/ml),1/7^cf
same,Number of strains inhibited/Number of strains tested,[11]; [17],1/7
same,Number of strains inhibited/Number of strains tested,[11]; 8AU (10 μl/spot of 800 AU/ml),7/7^cf
same,Number of strains inhibited/Number of strains tested,[11]; [16],7/7
same,Number of strains inhibited/Number of strains tested,[12]; 1AU (10 μl/spot of 100 AU/ml),0/3
same,Number of strains inhibited/Number of strains tested,[12]; 8AU (10 μl/spot of 800 AU/ml),3/3^g
same,Number of strains inhibited/Number of strains tested,[12]; [16],3/3
same,Number of strains inhibited/Number of strains tested,[13]; 1AU (10 μl/spot of 100 AU/ml),0/8
same,Number of strains inhibited/Number of strains tested,[13]; 8AU (10 μl/spot of 800 AU/ml),1/8^n
same,Number of strains inhibited/Number of strains tested,[13]; [16],1/8
same,Number of strains inhibited/Number of strains tested,[14]; 1AU (10 μl/spot of 100 AU/ml),0/14
same,Number of strains inhibited/Number of strains tested,[14]; 8AU (10 μl/spot of 800 AU/ml),0/14
same,Number of strains inhibited/Number of strains tested,[15]; 1AU (10 μl/spot of 100 AU/ml),0/3
same,Number of strains inhibited/Number of strains tested,[15]; 8AU (10 μl/spot of 800 AU/ml),0/3
Nisin,Number of strains inhibited/Number of strains tested,[1]; 1AU (10 μl/spot of 100 AU/ml),7/8
same,Number of strains inhibited/Number of strains tested,[1]; 8AU (10 μl/spot of 800 AU/ml),8/8
same,Number of strains inhibited/Number of strains tested,[2]; 1AU (10 μl/spot of 100 AU/ml),5/5
same,Number of strains inhibited/Number of strains tested,[2]; 8AU (10 μl/spot of 800 AU/ml),5/5
same,Number of strains inhibited/Number of strains tested,[3]; 1AU (10 μl/spot of 100 AU/ml),9/9
same,Number of strains inhibited/Number of strains tested,[3]; 8AU (10 μl/spot of 800 AU/ml),9/9
same,Number of strains inhibited/Number of strains tested,[4]; 1AU (10 μl/spot of 100 AU/ml),5/7
same,Number of strains inhibited/Number of strains tested,[4]; 8AU (10 μl/spot of 800 AU/ml),7/7
same,Number of strains inhibited/Number of strains tested,[5]; 1AU (10 μl/spot of 100 AU/ml),42/42
same,Number of strains inhibited/Number of strains tested,[5]; 8AU (10 μl/spot of 800 AU/ml),42/42
same,Number of strains inhibited/Number of strains tested,[6]; 1AU (10 μl/spot of 100 AU/ml),12/14
same,Number of strains inhibited/Number of strains tested,[6]; 8AU (10 μl/spot of 800 AU/ml),14/14
same,Number of strains inhibited/Number of strains tested,[7]; 1AU (10 μl/spot of 100 AU/ml),0/29
same,Number of strains inhibited/Number of strains tested,[7]; 8AU (10 μl/spot of 800 AU/ml),0/29
same,Number of strains inhibited/Number of strains tested,[8]; 1AU (10 μl/spot of 100 AU/ml),19/19
same,Number of strains inhibited/Number of strains tested,[8]; 8AU (10 μl/spot of 800 AU/ml),19/19
same,Number of strains inhibited/Number of strains tested,[9]; 1AU (10 μl/spot of 100 AU/ml),5/5
same,Number of strains inhibited/Number of strains tested,[9]; 8AU (10 μl/spot of 800 AU/ml),5/5
same,Number of strains inhibited/Number of strains tested,[10]; 1AU (10 μl/spot of 100 AU/ml),16/17
same,Number of strains inhibited/Number of strains tested,[10]; 8AU (10 μl/spot of 800 AU/ml),17/17
same,Number of strains inhibited/Number of strains tested,[11]; 1AU (10 μl/spot of 100 AU/ml),3/7
same,Number of strains inhibited/Number of strains tested,[11]; 8AU (10 μl/spot of 800 AU/ml),7/7
same,Number of strains inhibited/Number of strains tested,[12]; 1AU (10 μl/spot of 100 AU/ml),1/3
same,Number of strains inhibited/Number of strains tested,[12]; 8AU (10 μl/spot of 800 AU/ml),2/3
same,Number of strains inhibited/Number of strains tested,[13]; 1AU (10 μl/spot of 100 AU/ml),4/8
same,Number of strains inhibited/Number of strains tested,[13]; 8AU (10 μl/spot of 800 AU/ml),6/8^t and 6/8
same,Number of strains inhibited/Number of strains tested,[14]; 1AU (10 μl/spot of 100 AU/ml),14/14
same,Number of strains inhibited/Number of strains tested,[14]; 8AU (10 μl/spot of 800 AU/ml),14/14
same,Number of strains inhibited/Number of strains tested,[15]; 1AU (10 μl/spot of 100 AU/ml),3/3
same,Number of strains inhibited/Number of strains tested,[15]; 8AU (10 μl/spot of 800 AU/ml),3/3
